Results: US11242344B2, “(4-hydroxypyrrolidin-2-yl)-heterocyclic compounds and methods of use thereof” (Genentech, Inc., priority 2017, dated 2022)

Experiments:
[1] = biological target: VHL co-expressed with Elongins B and C (Homo sapiens (Human), UniProt P40337); experiment: Surface Plasmon Resonance Assay; type: binding; details: SPR measured VHL affinity; geometric mean where more than one measurement
Procedure, shortened: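 Avidin-tagged VHL co-expressed with Elongins B and C captured on a streptavidin chip. Compounds injected low-to-high concentration at 20 °C and 80 μL/min in 50 mM HEPES pH 7.2, 150 mM NaCl, 0.5 mM TCEP, 0.001% Tween 20, 0.2% PEG3350, 2% DMSO. Kinetic parameters from fits of binding curves.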

[2] = biological target: VHL Elongin B/C complex (Homo sapiens (Human), UniProt P40337); experiment: Fluorescence Polarization (FP) VHL Binding Assay; details: VHL binding, FP assay; geometric mean where more than one measurement
Sequence of VHL Elongin B/C complex (P40337 whole entry, looked up): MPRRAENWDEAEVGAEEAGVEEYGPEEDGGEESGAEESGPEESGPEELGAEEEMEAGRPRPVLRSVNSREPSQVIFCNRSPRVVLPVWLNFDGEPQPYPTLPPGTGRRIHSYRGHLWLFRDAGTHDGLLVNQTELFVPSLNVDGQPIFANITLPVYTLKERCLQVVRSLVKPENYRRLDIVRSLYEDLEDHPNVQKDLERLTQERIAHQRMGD
Sequence of VHL Elongin B/C complex (Q15370 whole entry partner, looked up): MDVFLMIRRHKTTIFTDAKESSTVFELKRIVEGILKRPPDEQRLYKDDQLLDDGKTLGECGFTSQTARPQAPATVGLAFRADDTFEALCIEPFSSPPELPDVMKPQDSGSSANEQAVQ
Sequence of VHL Elongin B/C complex (Q15369 whole entry partner, looked up): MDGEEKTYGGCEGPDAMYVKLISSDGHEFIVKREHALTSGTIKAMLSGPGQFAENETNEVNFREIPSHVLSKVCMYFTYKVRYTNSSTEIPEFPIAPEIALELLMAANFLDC
Procedure, shortened: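 FP tracer competition using His6-tagged human VHL (E55-D213) co-expressed with Elongin B and C in E. coli, final 2.64 nM, with TAMRA-labelled VHL ligand probe at 1.67 nM final. Buffer 50 mM Tris pH 8.0, 120 mM NaCl, 0.005% NP-40, 1% DMSO; 1 h at room temperature. Pre-assay compound/protein signal subtracted; IC50 from four-parameter fit.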

[3] = biological target: NanoLuc VHL fusion protein (Homo sapiens (Human), UniProt P40337); experiment: VHL HEK-293 BRET Assay (NanoBRET Target Engagement); type: cell-based; details: geometric mean where more than one measurement
Sequence of NanoLuc VHL fusion protein (P40337 whole entry, looked up, the tested form may be a part): as the sequence (P40337 whole entry, looked up) above
Sequence of NanoLuc VHL fusion protein (Q15370 whole entry partner, looked up, the tested form may be a part): as the sequence (Q15370 whole entry partner, looked up) above
Sequence of NanoLuc VHL fusion protein (Q15369 whole entry partner, looked up, the tested form may be a part): as the sequence (Q15369 whole entry partner, looked up) above
Description: The VHL NanoBRET™ Target Engagement Assay analyzes the apparent affinity of test compounds for VHL in cells by competitive displacement of a VHL NanoBRET™ tracer reversibly bound to a NanoLuc® VHL fusion protein stably expressed in the cells. Test compounds were transferred to the assay plate (384 Well White Non-Binding Corning Assay Plates (Corning-3574)) using an Echo 555 Liquid Handler (Labcyte) in 2.5 nL increments and, as appropriate, intermediate stock concentrations of compounds, in order to prepare a titration series. 50 nL of control compound (10 mM; parental unlabeled VHL antagonist; see structure below) and 50 nL of DMSO (negative control) were dispensed into the appropriate control wells. DMSO was backfilled to a final volume of 50 nL as required. 50 nl per well of 1 mM VHL NanoBRET™ Tracer in DMSO (NanoBRET™ Tracer-PEG2-590 (see structure below)) was transferred into each well using an Echo 555 (ultimately yielding a final concentration of 1 uM). HEK 293 RT VHL-NanoLuc® stable cells were cultured in DMEM High Glucose with Pyruvate, 10% fetal bovine serum, 2 mg/mL of Geneticin Selective Antibiotic (50 mg/ml) and 2 mM HEPES (1 M). Cells were seeded in Opti-MEM (Life Technologies-11058-021), 1.7×10^5 cells/mL, 40 μl per well into the assay plate, centrifuged at 500 rpm for 30 seconds and incubated for 2 hours. Max Signal control wells consisted of DMSO only treated wells. Minimum Signal control wells contained of 10 uM parental unlabeled VHL antagonist (control compound—see structure below). 3× Complete Substrate plus Inhibitor Solution was prepared in Opti-MEM (consists of a 1:166 dilution of NanoBRET™ Nano-Glo® Substrate plus a 1:500 dilution of Extracellular NanoLuc® Inhibitor in Opti-MEM), and 20 ul was dispensed into each well of the 384-well plate and centrifuged at 1000 rpm for 1 minute, then incubated for 2 minutes at room temperature. Background Signal control wells were prepared without tracer for background correction steps. Plates were read using a PerkinElmer Envision Reader (model 2104-0020) equipped with Luminescence option (Mirror: BRET2 Enh (PE Barcode 659), Emission Filter: Omega 610LP (Barcode 504), 2nd Emission Filter: Umbelliferone 460 (Barcode 207), Measurement height: 6.5 mm, Measurement time: 1 s). The raw BRET ratio values were calculated by dividing the acceptor emission value (610 nm) by the donor emission value (460 nm) for each sample. To correct for background, the BRET ratio in the absence of tracer (average of no-tracer control samples) was subtracted from the BRET ratio of each sample. Raw BRET units were converted to milliBRET units (mBU) by multiplying each raw BRET value by 1,000. The normalized NanoBRET™ signal was calculated relative to the Max Signal control wells (DMSO treated control wells) and the Minimum Signal control wells. Percentage inhibition was calculated relative to the Minimum Signal control and Maximum Signal control wells. IC50 values were derived by four parameter curve fitting using the Robust method.

Sequence of VHL co-expressed with Elongins B and C (P40337 whole entry, looked up): as the sequence (P40337 whole entry, looked up) above
Sequence of VHL co-expressed with Elongins B and C (Q15370 whole entry partner, looked up): as the sequence (Q15370 whole entry partner, looked up) above
Sequence of VHL co-expressed with Elongins B and C (Q15369 whole entry partner, looked up): as the sequence (Q15369 whole entry partner, looked up) above

Compound | Kd [1] [µM] | IC50 [2] [µM] | IC50 [3] [µM]
Cc1ncsc1-c1ccc([C@]2(C)NC(C3C[C@@H](O)CN3C(=O)C(c3cn(C)nn3)C(C)C)=NC2=O)cc1 (single isomer, unassigned) [Example 118.4] | 102 | ≥ 400 | 100
Cc1ncsc1-c1ccc([C@]2(C)NC(C3C[C@@H](O)CN3C(=O)[C@H](C(C)C)N3Cc4ccccc4C3=O)=NC2=O)cc1 (single isomer, unassigned) [Example 123.1] | 55.6 | ≥ 400 | 100
Cc1ncsc1-c1ccc([C@]2(C)NC(C3C[C@@H](O)CN3C(=O)[C@@H](NC(=O)C3(C#N)CC3)C(C)(C)C)=NC2=O)cc1 (single isomer, unassigned) [Example 111.1] | 31.8 | 111 | ≥ 100
Cc1noc(C(C(=O)N2C[C@H](O)CC2C2=NC(=O)[C@](C)(c3ccc(-c4scnc4C)cc3)N2)C(C)C)n1 (single isomer, unassigned) [Example 117.4] | 150 | ≥ 400 | 100
Cc1noc(C(C(=O)N2C[C@H](O)CC2C2=NC(=O)[C@](C)(c3ccc(-c4scnc4C)cc3)N2)C(C)C)n1 (single isomer, unassigned) [Example 117.2] | 0.625 | 1.62 | 1.9
CC(=O)N1CCCCC1C(=O)N1C[C@H](O)CC1C1=NC(=O)[C@](C)(c2ccc(-c3scnc3C)cc2)N1 (single isomer, unassigned) [Example 124.1] | ≥ 150 | ≥ 400 | 100
Cc1ncsc1-c1ccc([C@]2(C)NC(C3C[C@@H](O)CN3C(=O)C(c3cn(C)nn3)C(C)C)=NC2=O)cc1 (single isomer, unassigned) [Example 118.3] | 21.2 | 150 | 100
Cc1ncsc1-c1ccc([C@]2(C)NC(C3C[C@@H](O)CN3C(=O)C3N(S(C)(=O)=O)CCC3(C)C)=NC2=O)cc1 (single isomer, unassigned) [Example 125.3] | ≥ 150 | ≥ 400 | 100
Cc1ncsc1-c1ccc([C@]2(C)NC(C3C[C@@H](O)CN3C(=O)C(c3cnn(C)c3)C(C)C)=NC2=O)cc1 (single isomer, unassigned) [Example 110.4] | 150 | ≥ 400 | ≥ 100
Cc1ncsc1-c1ccc([C@]2(C)NC(C3C[C@@H](O)CN3C(=O)[C@@H]3CCCN3S(C)(=O)=O)=NC2=O)cc1 (single isomer, unassigned) [Example 112.1] | 12.1 | 23.3 | 66.4
Cc1ncsc1-c1ccc([C@]2(C)NC(C3C[C@@H](O)CN3C(=O)[C@@H]3CCCCN3S(C)(=O)=O)=NC2=O)cc1 (single isomer, unassigned) [Example 122.2] | 6.83 | 16.7 | 39
Cc1ncsc1-c1ccc([C@]2(C)NC(C3C[C@@H](O)CN3C(=O)[C@@H](NC(=O)C3(C#N)CC3)C(C)(C)C)=NC2=O)cc1 (single isomer, unassigned) [Example 111.2] | 1.86 | 4.97 | 5.11
Cc1ncsc1-c1ccc([C@]2(C)NC(C3C[C@@H](O)CN3C(=O)C3N(S(C)(=O)=O)CCC3(C)C)=NC2=O)cc1 (single isomer, unassigned) [Example 125.4] | ≥ 150 | ≥ 400 | 100
Cc1ncsc1-c1ccc([C@]2(C)NC(C3C[C@@H](O)CN3C(=O)[C@@H]3CCCCN3S(C)(=O)=O)=NC2=O)cc1 (single isomer, unassigned) [Example 122.1] | ≥ 150 | ≥ 400 | 100
CC(=O)N1CCCCC1C(=O)N1C[C@H](O)CC1C1=NC(=O)[C@](C)(c2ccc(-c3scnc3C)cc2)N1 (single isomer, unassigned) [Example 124.4] | ≥ 150 | ≥ 400 | 100
Cc1ncsc1-c1ccc([C@]2(C)NC(C3C[C@@H](O)CN3C(=O)C(c3cn(C)nn3)C(C)C)=NC2=O)cc1 (single isomer, unassigned) [Example 118.2] | 0.128 | 0.418 | 0.939

More lines, now with the values ahead:

Kd [1] [µM] | IC50 [2] [µM] | IC50 [3] [µM] | Compound
0.0438 | 0.202 | 0.239 | Cc1cc([C@H](C(=O)N2C[C@H](O)C[C@H]2C2=NOC(C)(c3ccc(-c4scnc4C)cc3)N2)C(C)C)on1 (single isomer, unassigned) [Example 129.4]
12.6 | 45.7 | 39.4 | Cc1cc([C@H](C(=O)N2C[C@H](O)C[C@H]2C2=NOC(c3ccccc3)(c3ccccc3)N2)C(C)C)on1 [Example 132.2, (R)-1-((2S,4R)-2-(5,5-diphenyl-4,5-dihydro-1,2,4-oxadiazol-3-yl)-4-hydroxypyrrolidin-1-yl)-3-methyl-2-(3-methylisoxazol-5-yl)butan-1-one]
≥ 150 | ≥ 400 | 100 | Cc1cc([C@@H](C(=O)N2C[C@H](O)C[C@H]2C2=NOC(c3ccccc3)(c3ccccc3)N2)C(C)C)on1 [Example 132.1, (S)-1-((2S,4R)-2-(5,5-diphenyl-4,5-dihydro-1,2,4-oxadiazol-3-yl)-4-hydroxypyrrolidin-1-yl)-3-methyl-2-(3-methylisoxazol-5-yl)butan-1-one]
7.5 | 17.3 | 24.5 | Cc1cc([C@H](C(=O)N2C[C@H](O)C[C@H]2C2=NOC(C)(c3ccccc3)N2)C(C)C)on1 (single isomer, unassigned) [Example 128.4]
5.3 | 35.4 | 100 | Cc1ncsc1-c1ccc([C@]2(C)NC(C3C[C@@H](O)CN3C(=O)C(c3cc(O)no3)C(C)C)=NC2=O)cc1 (single isomer, unassigned) [Example 116.4]
16.4 | 50.8 | 73.2 | Cc1cc([C@H](C(=O)N2C[C@H](O)C[C@H]2C2=NOC3(CCCC3)N2)C(C)C)on1 [Example 127.2, (R)-1-((2S,4R)-4-hydroxy-2-(1-oxa-2,4-diazaspiro[4.4]non-2-en-3-yl)pyrrolidin-1-yl)-3-methyl-2-(3-methylisoxazol-5-yl)butan-1-one]
121 | 362 | 100 | Cc1cc([C@@H](C(=O)N2C[C@H](O)C[C@H]2C2=NOC3(CCc4ccccc43)N2)C(C)C)on1 (single isomer, unassigned) [Example 130.2]
4.24 | 17.5 | 34.5 | Cc1cc([C@H](C(=O)N2C[C@H](O)C[C@H]2C2=NOC3(CCc4ccccc43)N2)C(C)C)on1 (single isomer, unassigned) [Example 130.4]
48.1 | 79 | 100 | Cc1cc([C@@H](C(=O)N2C[C@H](O)C[C@H]2C2=NOC(C)(c3ccc(-c4scnc4C)cc3)N2)C(C)C)on1 (single isomer, unassigned) [Example 129.1]
17.4 | 54.9 | 52.3 | Cc1cc([C@H](C(=O)N2C[C@H](O)C[C@H]2C2=NOC(c3ccc(Br)cc3)(C(F)(F)F)N2)C(C)C)on1 (single isomer, unassigned) [Example 133.4]
155 | ≥ 400 | 100 | Cc1noc(C(C(=O)N2C[C@H](O)CC2C2=NC(=O)[C@](C)(c3ccc(-c4scnc4C)cc3)N2)C(C)C)n1 (single isomer, unassigned) [Example 117.1]
